Data on 14 compounds can be found in US5223485A, “Anaphylatoxin-receptor ligands” (Abbott Laboratories, priority 1991, dated 1993).

In the assay the target is T1, C5a Receptor (Homo sapiens, UniProt P21730).
T1 construct: 2.5-25 μg/mL of purified PMNL membrane fragments; from tissue; host or cells: polymorphonuclear leukocyte (PMNL) membrane fragments
T1 sequence (P21730 1-350): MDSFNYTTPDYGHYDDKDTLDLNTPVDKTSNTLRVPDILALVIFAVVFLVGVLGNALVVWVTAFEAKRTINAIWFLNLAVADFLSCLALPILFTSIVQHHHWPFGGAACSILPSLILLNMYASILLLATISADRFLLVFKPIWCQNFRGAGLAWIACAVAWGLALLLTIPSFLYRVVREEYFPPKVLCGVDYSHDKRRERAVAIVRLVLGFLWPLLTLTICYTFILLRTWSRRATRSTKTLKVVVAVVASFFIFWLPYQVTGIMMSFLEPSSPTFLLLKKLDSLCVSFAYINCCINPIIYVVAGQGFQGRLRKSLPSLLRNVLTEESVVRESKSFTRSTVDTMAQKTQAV
The experiment in a line: Anaphylatoxin receptor binding Ki determination: inhibition of 125I-C5a binding to PMNL membrane fragments. The settings on record: 0.03-1 nM 125I-C5a, 2.5-25 μg/mL purified PMNL membrane fragments, filtration; read-out: In vitro C5a Receptor Binding Potency Ki. The procedure:
Specific inhibition of C5a binding activity of representative compounds of the present invention was measured using 0.03-1 nM ^125 I-C5a with 2.5-25 μg/mL of purified PMNL membrane fragments (Borregaard, N.; Heiple, J. M.; Simons, E. R.; and Clark, R. A. J. Cell. Biol. 1983, 97, 52-61.). Free and membrane-bound ligand were separated by filtration.

Numbered stars: 1 amine (or outer) side, 2 acyl side, 3 side chain; on linkers, the order of the positions; unused ones are H or OH. Square brackets hold non-standard residues; d marks the D form. Peptide text beside a SMILES is read from it. Phe(4-NO2) = N[C@@H](Cc1ccc([N+](=O)[O-])cc1)C(=O)O; X1 = O=C([C@@H](N[*:1])C(O)c1ccccc1)[*:2]; hCha = N[C@@H](CCC1CCCCC1)C(=O)O; Cha = N[C@@H](CC1CCCCC1)C(=O)O

The term Ki denotes a dissociation constant, usually derived from enzyme kinetics or from competition with a known ligand.

As to `CC(C)C[C@H](NC(=O)[C@H](CC1CCCCC1)NC(=O)[C@H](CC1CCCCC1)NC(=O)[C@H](C)NC(=O)[C@H](CCCCN)NC(=O)[C@@H](N)Cc1ccccc1)C(=O)N[C@H](C)C(=O)N[C@@H](CCCNC(=N)N)C(=O)O` [Example 2, H-Phenylalanyl-Lysyl-Alanyl-{(2S)-2-Amino-3-cyclohexylpropanoyl}-{(2S)-2-Amino-3-cyclohexylpropanoyl}-Leucyl-DAlanyl-Arginyl-OH] (H-FKA[Cha][Cha]L[dA]R-OH), the Ki was determined as 98 nM.
For `CC(=O)N[C@@H](Cc1c[nH]cn1)C(=O)N[C@@H](CCCCN)C(=O)N[C@@H](CC(=O)O)C(=O)N[C@@H](CC1CCCCC1)C(=O)N[C@@H](Cc1c[nH]cn1)C(=O)N[C@@H](CC(C)C)C(=O)N[C@H](C)C(=O)N[C@@H](CCCNC(=N)N)C(=O)O` [Example 23, Ac-Histidyl-Lysyl-Aspartyl-{(2S)-2-Amino-3-cyclohexylpropanoyl}-Histidyl-Leucyl-DAlanyl-Arginyl-OH] (Ac-HKD[Cha]HL[dA]R-OH), the inhibition constant (Ki) amounted to 2400 nM.
The same measure for `CC(=O)N[C@@H](Cc1ccc([N+](=O)[O-])cc1)C(=O)N[C@@H](CCCCN)C(=O)N[C@@H](CC(=O)O)C(=O)N[C@@H](CC1CCCCC1)C(=O)N[C@@H](CC1CCCCC1)C(=O)N[C@@H](CC(C)C)C(=O)N[C@H](C)C(=O)N[C@@H](CCCNC(=N)N)C(=O)O` [Example 31, Ac-(4-NO2)Phenylalanyl-Lysyl-Aspartyl-{(2S)-2-Amino-3-cyclohexylpropanoyl}-{(2S)-2-Amino-3-cyclohexylpropanoyl}-Leucyl-DAlanyl-Arginyl-OH] (Ac-[Phe(4-NO2)]KD[Cha][Cha]L[dA]R-OH): 90 nM.
Next, `CC(C)C[C@H](NC(=O)[C@H](Cc1ccccc1)NC(=O)[C@H](Cc1ccccc1)NC(=O)[C@H](CC(N)=O)NC(=O)[C@H](CCCCN)NC(=O)[C@@H](N)Cc1ccccc1)C(=O)N[C@H](C)C(=O)N[C@@H](CCCNC(=N)N)C(=O)O` [Example 91, H-Phenylalanyl-Lysyl-Asparaginyl-Phenylalanyl-Phenylalanyl-Leucyl-DAlanyl-Arginyl-OH] (H-FKNFFL[dA]R-OH): 485 nM; `CC(C)C[C@H](NC(=O)[C@H](C)NC(=O)[C@H](CCC1CCCCC1)NC(=O)[C@H](C)NC(=O)[C@H](CCCCN)NC(=O)[C@@H](N)Cc1ccccc1)C(=O)N[C@H](C)C(=O)N[C@@H](CCCNC(=N)N)C(=O)O` [Example 106, H-Phenylalanyl-Lysyl-Alanyl-{(2S)-2-Amino-4-cyclohexylbutanoyl}-Alanyl-Leucyl-DAlanyl-Arginyl-OH] (H-FKA[hCha]AL[dA]R-OH): 42 nM; `CC[C@H](C)[C@H](N)C(=O)N[C@@H](CO)C(=O)N[C@@H](Cc1ccccc1)C(=O)N[C@@H](CCCCN)C(=O)N[C@@H](CC(=O)O)C(=O)N[C@@H](CC1CCCCC1)C(=O)N[C@@H](CC1CCCCC1)C(=O)N[C@@H](CC(C)C)C(=O)N[C@H](C)C(=O)N[C@@H](CCCNC(=N)N)C(=O)O` [Example 111, H-Isoleucyl-Seryl-Phenylalanyl-Lysyl-Aspartyl-{(2S)-2-Amino-3-cyclohexylpropanoyl}-{(2S)-2-Amino-3-cyclohexylpropanoyl}-Leucyl-DAlanyl-Arginyl-OH] (H-ISFKD[Cha][Cha]L[dA]R-OH): 650 nM.
Next, `CC(C)C[C@H](NC(=O)[C@H](C)NC(=O)[C@@H](NC(=O)[C@H](C)NC(=O)[C@H](CCCCN)NC(=O)[C@@H](N)Cc1ccccc1)C(O)c1ccccc1)C(=O)N[C@H](C)C(=O)N[C@@H](CCCNC(=N)N)C(=O)O` (some centres unmarked) [Example 117, H-Phenylalanyl-Lysyl-Alanyl-Phenylseryl-Alanyl-Leucyl-DAlanyl-Arginyl-OH] (H-FKA[X1]AL[dA]R-OH): 550 nM.
Take `C[C@H](NC(=O)[C@H](CCCCN)NC(=O)[C@@H](N)Cc1ccccc1)C(=O)N[C@@H](CC1CCCCC1)C(=O)N[C@@H](CC1CCCCC1)C(=O)N[C@H](C(=O)N[C@H](C)C(=O)N[C@@H](CCCNC(=N)N)C(=O)O)[C@@H](C)O` [Example 131, H-Phenylalanyl-Lysyl-Alanyl-{(2S)-2-Amino-3-cyclohexylpropanoyl}-{(2S)-2-Amino-3-cyclohexylpropanoyl}-Threonyl-DAlanyl-Arginyl-OH] (H-FKA[Cha][Cha]T[dA]R-OH): the Ki stood at 170 nM.
As to `CCCC(C(=O)N[C@H](C)C(=O)N[C@@H](CCCNC(=N)N)C(=O)O)N1CCCC[C@H](NC(=O)[C@H](CC2CCCCC2)NC(=O)[C@H](Cc2c[nH]cn2)NC(=O)[C@H](CCCCN)NC(=O)[C@@H](N)Cc2ccccc2)C1=O` (stereo partly drawn) [Example 150, H-Phenylalanyl-Lysyl-Histidyl-{(2S)-2-Amino-3-cyclohexylpropanoyl}-{(2'R/S,3S)-3-Amino-2-oxo-1-azepine-2'-pentanoyl}-DAlanyl-Arginyl-OH], the Ki is 110 nM.
`CC(C)C[C@H](NC(=O)CNC(=O)[C@H](CC1CCCCC1)NC(=O)[C@H](C)NC(=O)[C@H](CCCCN)NC(=O)[C@@H](N)Cc1ccccc1)C(=O)N[C@H](C)C(=O)N[C@@H](CCCNC(=N)N)C(=O)O` [Example 165, H-Phenylalanyl-Lysyl-Alanyl-{(2S)-2-Amino-3-cyclohexylpropanoyl}-Glycyl-Leucyl-DAlanyl-Arginyl-OH] (H-FKA[Cha]GL[dA]R-OH): the Ki was determined as 42 nM.
`CC(C)C[C@H](NC(=O)[C@H](CC1CCCCC1)NC(=O)[C@@H](NC(=O)[C@H](C)NC(=O)[C@H](CCCCN)NC(=O)[C@@H](N)Cc1ccccc1)[C@@H](C)O)C(=O)N[C@H](C)C(=O)N[C@@H](CCCNC(=N)N)C(=O)O` [Example 182, H-Phenylalanyl-Lysysl-Alanyl-Threonyl-{(2S)-2-Amino-3-cyclohexylpropanoyl}-Leucyl-DAlanyl-Arginyl-OH] (H-FKAT[Cha]L[dA]R-OH): the Ki is 300 nM.
Take `CC(C)C[C@H](NC(=O)[C@H](CC1CCCCC1)NC(=O)[C@H](CC1CCCCC1)NC(=O)[C@H](C)NC(=O)[C@H](CCCCN)NC(=O)[C@@H](N)Cc1ccccc1)C(=O)N[C@@H](C)C(=O)N[C@@H](CCCNC(=N)N)C(=O)O` [Example 188, H-Phenylalanyl-Lysyl-Alanyl-{(2S)-2-Amino-3-cyclohexylpropanoyl}-{(2S)-2-Amino-3-cyclohexylpropanoyl}-Leucyl-Alanyl-Arginyl-OH] (H-FKA[Cha][Cha]LAR-OH): the inhibition constant (Ki) turned out to be 210 nM.
The same measure for `C[C@H](NC(=O)[C@H](CCCCN)NC(=O)[C@@H](N)Cc1ccccc1)C(=O)N[C@@H](CC1CCCCC1)C(=O)N[C@@H](CC1CCCCC1)C(=O)N[C@H](C)C(=O)N[C@H](C)C(=O)N[C@@H](CCCNC(=N)N)C(=O)O` [Example 202, H-Phenylalanyl-Lysyl-Alanyl-{(2S)-2-Amino-3-cyclohexylpropanoyl}-{(2S)-2-Amino-3-cyclohexylpropanoyl}-DAlanyl-DAlanyl-Arginyl-OH] (H-FKA[Cha][Cha][dA][dA]R-OH): 870 nM.
The same measure for `CC(C)C[C@H](NC(=O)[C@H](CC1CCCCC1)NC(=O)[C@H](CC1CCCCC1)NC(=O)[C@H](C)NC(=O)[C@H](CCCCN)NC(=O)[C@@H](N)Cc1ccccc1)C(=O)N[C@H](C)C(=O)NCC(=O)N[C@@H](CCCNC(=N)N)C(=O)O` [Example 213, H-Phenylalanyl-Lysyl-Alanyl-{(2S)-2-Amino-3-cyclohexylpropanoyl}-{(2S)-2-Amino-3-cyclohexylpropanoyl)-Leucyl-DAlanyl-Glycyl-Arginyl-OH] (H-FKA[Cha][Cha]L[dA]GR-OH): 330 nM.
